Experimental data as given in patent publication US20230271969A1, “NITROGEN-CONTAINING FUSED RING DERIVATIVE INHIBITOR, PREPARATION METHOD THEREFOR AND USE THEREOF” (Shanghai Hansoh Biomedical Co., Ltd., priority 2020, published 2023).

Experiments:
NK3 receptors [1] = target: T1, NK3 receptors (Homo sapiens, UniProt P29371); experiment: Calcium ion fluidity (FLIPR) in cells with stable expression of NK3 receptors; type: cell-based; conditions: calcium signal, antagonist mode, read-out: NK3R IC50 (nM) FLIPR
T1 construct: expressed in transfected cells
T1 sequence (P29371 1-465): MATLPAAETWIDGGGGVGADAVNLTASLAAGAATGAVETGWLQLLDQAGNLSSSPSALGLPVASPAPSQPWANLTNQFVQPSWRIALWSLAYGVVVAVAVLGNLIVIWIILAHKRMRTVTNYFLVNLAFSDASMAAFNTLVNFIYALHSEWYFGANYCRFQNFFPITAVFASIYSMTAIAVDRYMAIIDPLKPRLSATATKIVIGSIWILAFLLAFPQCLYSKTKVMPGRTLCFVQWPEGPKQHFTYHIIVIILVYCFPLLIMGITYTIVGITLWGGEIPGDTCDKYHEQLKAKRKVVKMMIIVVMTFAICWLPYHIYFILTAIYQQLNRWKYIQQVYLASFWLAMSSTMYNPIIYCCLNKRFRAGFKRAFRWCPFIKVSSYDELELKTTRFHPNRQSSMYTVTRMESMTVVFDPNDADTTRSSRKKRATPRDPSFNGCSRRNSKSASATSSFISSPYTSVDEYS
Excerpt: Determination of the Effect of the Compounds of the Present Invention on Calcium Ion Fluidity in Cells with Stable Expression of NK3 Receptors
Experimental objective: The objective of this test example was to determine the inhibitory effect of the compounds on NK3 receptors.
Experimental Methods: • 1. […] Probenecid and BSA were freshly added on the day of the experiment. The buffers for the experiments included dye buffer, compound dilution buffer and the like. • 2. […] The culture medium was discarded, and 20 μL of dye was added. The cells were incubated at 37° C. in the dark for 60 min, and then the calcium signal was read. • 4. The antagonist was prepared before the experiments. […] The plate was transferred to FLIPR, and 6× concentration of the agonist compound was added at 5 μL/well. The values were read and the data were saved by using FLIPR. The total assay volume was 30 μL, comprising 20 μL/well of dye buffer, 5 μL/well of 5× concentration of the experimental compound, and 5 μL/well of 6× concentration of the agonist compound.
The calcium signal value was read by FLIPR. The output of each sampling time point in the experiment was calculated as the ratio of the signals at wavelengths of 340/510 nm to 380/510 nm. The maximum minus minimum value was calculated from the ratio signal curve. The IC50 value of the compound was calculated by fitting the data of inhibition rate percentage and ten concentrations to the parametric nonlinear logistic equation by using GraphPad prism.

NK3 receptors [2] = target: T1, NK3 receptors; experiment: Antagonism of IP1 in HEK293 cells with stable expression of NK3; type: cell-based; conditions: agonist Senktide 3 nM, read-out: NK3R IC50 (nM) IP1
Description: Determination of the Effect of the Compounds of the Present Invention on IP1 in HEK293 Cells with Stable Expression of NK3
The objective of this test example was to determine the antagonism effect of the compounds on the activity of HEK293-NK3 cells.
3. Experimental Methods: • 1. […] HEK293-NK3 cell line was cultured in complete medium and seeded in the coated dishes at 37° C., 5% CO2 until 70%˜90% confluence. • 3. […] The cells were digested and resuspended in 1× Stimulation Buffer (IP-ONE Gq Kit), seeded into the 384-well cell culture plate (which contained the compound to be tested) at 5,000 cells/well/5 μL by using Multidrop Combi. The culture plate was centrifuged at 300 rpm at room temperature for 60 seconds, and then incubated at 37° C., 5% CO2 for 15 minutes. • 5. The cell culture plate was taken out from the CO2 incubator. […] The culture plate was centrifuged at 300 rpm at room temperature for 60 seconds, and then incubated at 37° C., 5% CO2 for 2 hours. • 6. The cell culture plate was taken out from the CO2 incubator. 5 μL of IP1 d2 reagent and then 5 μL of IP1 Tb Cryptate Antibody reagent were added by using Multidrop Combi. The culture plate was centrifuged at room temperature at 300 rpm for 60 seconds, and left to stand at room temperature for 1 hour. • 7. The plate was read by using EnVision Multilabel Reader, and data were collected at the same time.
The fluorescence signal ratio (Ratio) was read and collected by EnVision Multilabel Reader. According to the readings of the Low control (DMSO control) and High control (p)ositive compound) experimental groups, the antagonism percentage data were calculated as {% antagonism=(Ratio sample−Ratio low control)/(Ratio high control−Ratio low control)×100}.

| SMILES | IC50 (NK3 receptors [1]) [nM] | IC50 (NK3 receptors [2]) [nM] |
| --- | --- | --- |
| C[C@@H]1c2nnc(-c3nc(Br)ns3)n2CCN1C(=O)c1ccc(F)cc1 [Example 98] | 78.4 | 100 |
| C[C@@H]1c2nnc(-c3nc4cc(F)ccc4s3)n2CCN1C(=O)c1ccc(Cl)c(Cl)c1 [Example 11, (R)-(3,4-Dichlorophenyl)(3-(5-fluorobenzo[d]thiazol-2-yl)-8-methyl-5,6-dihydro-[1,2,4]triazolo[4,3-a]pyrazin-7(8H)-yl)methanone] | 47.5 | 176 |
| C[C@@H]1c2nnc(-c3nc4ccc(F)cc4s3)n2CCN1C(=O)c1ccc(F)cc1 [Example 12, (R)-(3-(6-Fluorobenzo[d]thiazol-2-yl)-8-methyl-5,6-dihydro-[1,2,4]triazolo[4,3-a]pyrazin-7(8H)-yl)(4-fluorophenyl)methanone] | 37 | 39.3 |
| C[C@@H]1c2nnc(-c3nc4cnc(Cl)cc4s3)n2CCN1C(=O)c1ccc(Cl)cc1 [Example 97, (R)-(4-Chlorophenyl)(3-(6-chlorothiazolo[4,5-c]pyridin-2-yl)-8-methyl-5,6-dihydro-[1,2,4]triazolo[4,3-a]pyrazin-7(8H)-yl)methanone] | 156 | 172 |
| Cc1ccc2nc(-c3nnc4n3CCN(C(=O)c3ccc(Cl)cc3)[C@@H]4C)sc2c1 [Example 25, (R)-(4-Chlorophenyl)(8-methyl-3-(6-methylbenzo[d]thiazol-2-yl)-5,6-dihydro-[1,2,4]triazolo[4,3-a]pyrazin-7(8H)-yl)methanone] | 58.4 | 47.8 |
| Cc1ccc2nc(-c3nnc4n3CCN(C(=O)c3ccc(Cl)c(Cl)c3)[C@@H]4C)sc2c1 [Example 26, (R)-(3,4-Dichlorophenyl)(8-methyl-3-(6-methylbenzo[d]thiazol-2-yl)-5,6-dihydro-[1,2,4]triazolo[4,3-a]pyrazin-7(8H)-yl)methanone] | 96.7 | 36.1 |
| C[C@@H]1c2nnc(-c3nc4ccccc4s3)n2CCN1C(=O)c1ccc(Cl)c(Cl)c1 [Example 4, (R)-(3-(Benzo[d]thiazol-2-yl)-8-methyl-5,6-dihydro-[1,2,4]triazolo[4,3-a]pyrazin-7 (8H)-yl)(3,4-dichlorophenyl)methanone] | 61.3 | 94.3 |
| Cc1cccc2sc(-c3nnc4n3CCN(C(=O)c3ccc(Cl)cc3)[C@@H]4C)nc12 [Example 23, (R)-(4-Chlorophenyl)(8-methyl-3-(4-methylbenzo[d]thiazol-2-yl)-5,6-dihydro-[1,2,4]triazolo[4,3-a]pyrazin-7(8H)-yl)methanone] | 97.8 | 43.6 |
| C[C@@H]1c2nnc(-c3nc4ccc(F)cc4s3)n2CCN1C(=O)c1ccc(Cl)c(Cl)c1 [Example 14, (R)-(3,4-Dichlorophenyl)(3-(6-fluorobenzo[d]thiazol-2-yl)-8-methyl-5,6-dihydro-[1,2,4]triazolo[4,3-a]pyrazin-7(8H)-yl)methanone] | 97.6 | 41.9 |
| Cc1cccc2sc(-c3nnc4n3CCN(C(=O)c3ccc(F)cc3)[C@@H]4C)nc12 [Example 22, (R)-(4-Fluorophenyl)(8-methyl-3-(4-methylbenzo[d]thiazol-2-yl)-5,6-dihydro-[1,2,4]triazolo[4,3-a]pyrazin-7(8H)-yl)methanone] | 73.3 | 57 |
| COc1ccc2nc(-c3nnc4n3CCN(C(=O)c3ccc(Cl)c(Cl)c3)[C@@H]4C)sc2c1 [Example 31, (R)-(3,4-Dichlorophenyl)(3-(6-methoxybenzo[d]thiazol-2-yl)-8-methyl-5,6-dihydro-[1,2,4]triazolo[4,3-a]pyrazin-7(8H)-yl)methanone] | 86.7 | 43.2 |
| [2H]c1cc(C(=O)N2CCn3c(-c4nc5ccc(F)cc5s4)nnc3[C@H]2C)ccc1Cl [Example 101, (R)-(4-Chlorophenyl-3-d)(3-(6-fluorobenzo[d]thiazol-2-yl)-8-methyl-5,6-dihydro-[1,2,4]triazolo[4,3-a]pyrazin-7(8H)-yl)methanone] | 86.7 | 61 |
| C[C@@H]1c2nnc(-c3nc4ccc(F)cc4s3)n2CCN1C(=O)c1ccc(Cl)cc1 [Example 13, (R)-(4-Chlorophenyl)(3-(6-fluorobenzo[d]thiazol-2-yl)-8-methyl-5,6-dihydro-[1,2,4]triazolo[4,3-a]pyrazin-7(8H)-yl)methanone] | 71.6 | 131 |
| C[C@@H]1c2nnc(-c3nc4cc(F)ccc4s3)n2CCN1C(=O)c1ccc(Cl)cc1 [Example 10, (R)-(4-Chlorophenyl)(3-(5-fluorobenzo[d]thiazol-2-yl)-8-methyl-5,6-dihydro-[1,2,4]triazolo[4,3-a]pyrazin-7(8H)-yl)methanone] | 51.4 | 172 |
| Cc1cccc2cc(-c3nnc4n3CCN(C(=O)c3ccc(Cl)c(Cl)c3)[C@@H]4C)nn12 [Example 49, (R)-(3,4-Dichlorophenyl)(8-methyl-3-(7-methylpyrazolo[1,5-a]pyridin-2-yl)-5,6-dihydro-[1,2,4]triazolo[4,3-a]pyrazin-7(8H)-yl)methanone] | 86.7 | 135 |
| C[C@@H]1c2nnc(-c3nc4cc(F)ccc4s3)n2CCN1C(=O)c1ccc(F)cc1 [Example 9, (R)-(3-(5-Fluorobenzo[d]thiazol-2-yl)-8-methyl-5,6-dihydro-[1,2,4]triazolo[4,3-a]pyrazin-7(8H)-yl)(4-fluorophenyl)methanone] | 33.3 | 46 |
| [2H]C([2H])([2H])N(c1nsc(-c2nnc3n2CCN(C(=O)c2ccc(Cl)cc2)[C@@H]3C)n1)C([2H])([2H])[2H] [Example 107, (R)-(3-(3-(Bis(methyl-d3)amino)-1,2,4-thiadiazol-5-yl)-8-methyl-5,6-dihydro-[1,2,4]triazolo[4,3-a]pyrazin-7(8H)-yl)(4-chlorophenyl)methanone] | 184 | 80.5 |
| COc1ccc2nc(-c3nnc4n3CCN(C(=O)c3ccc(F)cc3)[C@@H]4C)sc2c1 [Example 29, (R)-(4-Fluorophenyl)(3-(6-methoxybenzo[d]thiazol-2-yl)-8-methyl-5,6-dihydro-[1,2,4]triazolo[4,3-a]pyrazin-7(8H)-yl)methanone] | 65.8 | 29 |
| [2H]c1cc(C(=O)N2CCn3c(-c4nc5ccc(Cl)cc5s4)nnc3[C@H]2C)ccc1F [Example 103, (R)-(3-(6-Chlorobenzo[d]thiazol-2-yl)-8-methyl-5,6-dihydro-[1,2,4]triazolo[4,3-a]pyrazin-7(8H)-yl)(4-fluorophenyl-3-d)methanone] | 27.1 | 16 |
| C[C@@H]1c2nnc(-c3nc(Cl)ns3)n2CCN1C(=O)c1cc(F)c(F)c(F)c1 [Example 58, (R)-(3-(3-Chloro-1,2,4-thiadiazol-5-yl)-8-methyl-5,6-dihydro-[1,2,4]triazolo[4,3-a]pyrazin-7(8H)-yl)(3,4,5-trifluorophenyl)methanone] | 183 | 84.1 |
| [2H]c1cc(C(=O)N2CCn3c(-c4nc5cc(F)c(F)cc5s4)nnc3[C@H]2C)ccc1Cl [Example 99, (R)-(4-Chlorophenyl-3-d)(3-(5,6-difluorobenzo[d]thiazol-2-yl)-8-methyl-5,6-dihydro-[1,2,4]triazolo[4,3-a]pyrazin-7(8H)-yl)methanone] | 56.2 | 23.3 |
